pIC50: −log10 of the molar value. Where two headings read alike, the source gives them in different places.
Test system: panel of human cell lines
Assay: In vitro proliferation assay, Cell Titer Glo, two doubling times, 298 cell lines
Format: cell-based
Conditions: Homo sapiens, read-out: ABS_IC50_VALUE
Source text: Cell Titer Glo measures ATP, thus the IC50s represent both the effect on purine production and cell proliferation, which are related. […] Folates are actively taken up in cells by reduced folate carrier (SLC19A1), proton-coupled folate transporter (SLC46A1), and the FOLR1 folate receptor[17]. Once inside the cell, folates are trapped by polyglutamation catalyzed by folylpolyglutamate synthetase (FPGS). […] Gene expression data for ATIC, GART, APRT, HPRT, FOLR1, SLC19A1, SLC46A1 & FPGS are shown in Fig. 2, since these genes were anticipated to predict sensitivity. […] The MDA-MB-231 cell line is reduced folate carrier (SLC19A1) negative due to epigenetic silencing.
Cells were cultured using recommended culture conditions unless noted otherwise (Supplemental Table 3). Cells were plated, dosed with compound and incubated at 37 °C for approximately 2 doubling times as determined for each cell line. Cell Titer Glo (Promega) assay was used to measure proliferation according to manufacturer’s recommendations by measuring luminescence with Flexstation3 (Molecular Devices) with 500 ms integration time. […] The % response was fit to a four-parameter logistic equation using ACTIVITYBASE 4.0 to determine the absolute IC50 values.
Cell Lines: Cell lines of adrenal gland, autonomic ganglia, biliary tract, blood ALL, blood AML, blood CML, blood hodgkin lymphoma, blood lymphoma, blood multiple myeloma, blood NHL, blood RAEB, bone, breast ER+, breast fibroblast, breast fibroblast mixed, breast HER2, breast normal, breast triple negative, cervix, CNS, endometrium, eye, fibroblast normal, kidney ns, kidney renal, large intestine, liver, liver normal, lung adenocarcinoma, lung ns, lung NSCLC, lung NSCLC mixed, lung SCLC, lung squamous, melanoma, melanoma normal, esophagus adenocarcinoma, esophagus ns, esophagus squamous, ovary, pancreas adenocarcinoma, pancreas ductal carcinoma, pancreas ns, pleura mesothelioma, prostate adenocarcinoma, prostate small cell, salivary gland, small intestine, soft tissue, stomach, testis, thyroid, thyroid squamous, umbilical vein endothelial cell normal, upper aerodigestive tract squamous, urinary tract ns, urinary tract transitional cell carcinoma, and vulva squamous origin were obtained from ATCC, CASTCC, CLS, DSMZ, ECACC, HSRRB, ICLC, JCRB, NCI, Riken and SNU cell banks. The murine A9 cell line was acquired from the ATCC (CCL-1.4).

O=c1[nH]ccc2cc(F)c(NS(=O)(=O)c3ccc(N4CC[C@@H](O)C4)s3)cc12 [LSN3213128, N-(6-Fluoro-1-oxo-1,2-dihydroisoquinolin-7-yl)-5-[(3R)-3-hydroxypyrrolidin-1-yl]thiophene-2-sulfonamide]
pIC50 (NCI-H661, NCI-H661, lung): 4.79
pIC50 (NCI-H716, NCI-H716, large intestine): 5.87
pIC50 (NCI-H929, NCI-H929, haematopoietic and lymphoid tissue): < 4.70
pIC50 (NCI-H1048, NCI-H1048, lung): < 4.70
pIC50 (NCI-H1092, NCI-H1092, lung): < 4.70
pIC50 (NCI-H1105, lung): < 4.70
pIC50 (NCI-H1155, NCI-H1155, lung): 4.87
pIC50 (NCI-H1299, NCI-H1299, lung): 5.88
pIC50 (NCI-H1341, lung): 5.55
pIC50 (NCI-H1355, NCI-H1355, lung): < 4.70
pIC50 (NCI-H1395, NCI-H1395, lung): 4.90
pIC50 (NCI-H1435, NCI-H1435, lung): < 4.70
pIC50 (NCI-H1437, NCI-H1437, lung): 5.86
pIC50 (NCI-H1573, NCI-H1573, lung): < 4.70
pIC50 (NCI-H1581, NCI-H1581, lung): 4.78
pIC50 (NCI-H1618, lung): < 4.70
pIC50 (NCI-H1623, NCI-H1623, lung): < 4.70
pIC50 (NCI-H1648, NCI-H1648, lung): < 4.70
pIC50 (NCI-H1650, NCI-H1650, lung): 5.09
pIC50 (NCI-H1651, NCI-H1651, lung): < 4.70
pIC50 (NCI-H1666, NCI-H1666, lung): < 4.70
pIC50 (NCI-H1694, NCI-H1694, lung): < 4.70
pIC50 (NCI-H1703, NCI-H1703, lung): < 4.70
pIC50 (NCI-H1734, NCI-H1734, lung): < 4.70
pIC50 (NCI-H1781, NCI-H1781, lung): < 4.70
pIC50 (NCI-H1792, NCI-H1792, lung): 5.07
pIC50 (NCI-H1793, NCI-H1793, lung): < 4.70
pIC50 (NCI-H1836, NCI-H1836, lung): 5.61
pIC50 (NCI-H1838, NCI-H1838, lung): < 4.70
pIC50 (NCI-H1876, lung): < 4.70
pIC50 (NCI-H1930, NCI-H1930, lung): 4.75
pIC50 (NCI-H1944, NCI-H1944, lung): < 4.70
pIC50 (NCI-H1975, NCI-H1975, lung): 5.67
pIC50 (NCI-H2009, NCI-H2009, lung): < 4.70
pIC50 (NCI-H2023, NCI-H2023, lung): < 4.70
pIC50 (NCI-H2029, NCI-H2029, lung): < 4.70
pIC50 (NCI-H2030, NCI-H2030, lung): 5.09
pIC50 (NCI-H2052, NCI-H2052, pleura): < 4.70
pIC50 (NCI-H2066, NCI-H2066, lung): < 4.70
pIC50 (NCI-H2081, NCI-H2081, lung): < 4.70
pIC50 (NCI-H2085, lung): < 4.70
pIC50 (NCI-H2087, NCI-H2087, lung): < 4.70
pIC50 (NCI-H2122, NCI-H2122, lung): 5.91
pIC50 (NCI-H2126, NCI-H2126, lung): < 4.70
pIC50 (NCI-H2170, NCI-H2170, lung): 4.86
pIC50 (NCI-H2171, NCI-H2171, lung): < 4.70
pIC50 (NCI-H2227, lung): < 4.70
pIC50 (NCI-H2228, NCI-H2228, lung): 5.15
pIC50 (NCI-H2286, NCI-H2286, lung): 4.75
pIC50 (NCI-H2347, NCI-H2347, lung): < 4.70
pIC50 (NCI-H2405, NCI-H2405, lung): < 4.70
pIC50 (NCI-H2452, NCI-H2452, pleura): < 4.70
pIC50 (NCI-N87, NCI-N87, stomach): 5.62
pIC50 (NCI-SNU-5, stomach): < 4.70
pIC50 (NCI-SNU-16, stomach): 5.93
pIC50 (NH-6, autonomic ganglia): < 4.70
pIC50 (NMC-G1, central nervous system): < 4.70
pIC50 (NOMO-1, NOMO-1, haematopoietic and lymphoid tissue): 5.69
pIC50 (NUGC-3, NUGC-3, stomach): 4.92
pIC50 (NUGC-4, NUGC-4, stomach): 5.08
pIC50 (OCUM1, OCUM-1, stomach): 4.78
pIC50 (OE19, OE19, oesophagus): 5.19
pIC50 (OE33, OE33, oesophagus): 4.90
pIC50 (ONS-76, ONS-76, central nervous system): 5.44
pIC50 (OVCAR-3, OVCAR-3, ovary): 4.90
pIC50 (OVMANA, ovary): 5.59
pIC50 (P31-FUJ, haematopoietic and lymphoid tissue): 6.15
pIC50 (PC-3, prostate): < 4.70
pIC50 (PF-382, PF-382, haematopoietic and lymphoid tissue): 5.67
pIC50 (Panc 04.03, Panc 04.03, pancreas): 5.26
pIC50 (Pfeiffer, haematopoietic and lymphoid tissue): 5.59
pIC50 (QGP-1, QGP-1, pancreas): 4.97
pIC50 (RD, soft tissue): 5.04
pIC50 (RD-ES, bone): 5.07
pIC50 (REH, haematopoietic and lymphoid tissue): 5.16
pIC50 (RERF-LC-MS, lung): 5.72
pIC50 (RKN, ovary): < 4.70
pIC50 (RKO, large intestine): 5.09
pIC50 (RL95-2, RL95-2, endometrium): < 4.70
pIC50 (RL, haematopoietic and lymphoid tissue): 6.12
pIC50 (RMG-I, ovary): < 4.70
pIC50 (RPMI-7951, RPMI-7951, skin): < 4.70
pIC50 (RPMI-8226, RPMI-8226, haematopoietic and lymphoid tissue): 4.90
pIC50 (RT4, urinary tract): < 4.70
pIC50 (RT112/84, RT112/84, urinary tract): 5.72
pIC50 (Raji, haematopoietic and lymphoid tissue): 5.12
pIC50 (Rec1, REC-1, haematopoietic and lymphoid tissue): < 4.70
pIC50 (SCC-4, SCC-4, upper aerodigestive tract): < 4.70
pIC50 (SCC-9, SCC-9, upper aerodigestive tract): < 4.70
pIC50 (SCC-15, SCC-15, upper aerodigestive tract): < 4.70
pIC50 (SCC-25, SCC-25, upper aerodigestive tract): < 4.70
pIC50 (SH-10-TC, stomach): < 4.70
pIC50 (SJRH30, SJRH30, soft tissue): 5.29
pIC50 (SJSA-1, SJSA-1, bone): < 4.70
pIC50 (SK-BR-3, SK-BR-3, breast): 5.19
pIC50 (SK-CO-1, SK-CO-1, large intestine): 4.89
pIC50 (SK-ES1, SK-ES-1, bone): < 4.70
pIC50 (SK-HEP1, SK-HEP-1, liver): 4.96
pIC50 (SK-LMS-1, SK-LMS-1, soft tissue): 6.04
pIC50 (SK-LU-1, SK-LU-1 (lung, adenocarcinoma)): < 4.70
pIC50 (SK-MEL3, SK-MEL-3 (skin, malignant melanoma)): < 4.70
pIC50 (SK-MEL-2, SK-MEL-2 (skin, malignant melanoma)): < 4.70
pIC50 (SK-MEL-5, SK-MEL-5 (skin, melanoma)): < 4.70
pIC50 (SK-MEL-24, SK-MEL-24 (skin, malignant melanoma)): < 4.70
pIC50 (SK-MEL-28, SK-MEL-28 (skin, malignant melanoma)): 6.33
pIC50 (SK-MEL-31 (skin, malignant melanoma)): < 4.70
pIC50 (SK-MES-1, SK-MES-1 (lung; squamous cell carcinoma)): 5.65
pIC50 (SK-N-AS, SK-N-AS (brain, neuroblastoma)): < 4.70
pIC50 (SK-OV-3, SK-OV-3 (ovary, adenocarcinoma)): < 4.70
pIC50 (SNB-19, SNB19 (central nervous system, Glioblastoma)): 6.10
pIC50 (SNG-M (endometrium, endometrial adenocarcinoma)): < 4.70
pIC50 (SNU-182, SNU-182 (liver, hepatocellular carcinoma)): 4.68
pIC50 (SNU-216, SNU-216 (stomach, Human gastric carcinoma)): < 4.70
pIC50 (SNU-387, SNU-387 (liver, pleomorphic hepatocellular carcinoma)): 4.57
pIC50 (SNU-398, SNU-398 (liver, hepatocellular carcinoma)): 4.78
pIC50 (SNU-423, SNU-423 (liver, pleomorphic hepatocellular carcinoma)): 4.66
pIC50 (SNU-449, SNU-449 (liver, hepatocellular carcinoma)): 4.95
pIC50 (SNU-475, SNU-475 (liver, hepatocellular carcinoma)): 4.61
pIC50 (SNU-C1, SNU-C1 (large intestine, colon, adenocarcinoma)): 5.34
pIC50 (SNU-C2A (large intestine, cecum, colorectal carcinoma)): < 4.70
pIC50 (SW48, SW48 (large intestine, colon, colorectal adenocarcinoma)): 5.16
pIC50 (SW480, SW480 (large intestine, colon, colorectal adenocarcinoma)): 5.71
pIC50 (SW837, SW837 (large intestine, rectum, adenocarcinoma)): 5.89
pIC50 (SW1271, SW 1271 (lung; small cell lung carcinoma)): 4.98
pIC50 (SW1353, SW 1353 (bone, chondrosarcoma)): < 4.70
pIC50 (SW1417, SW1417 (large intestine, colon, colorectal adenocarcinoma)): < 4.70
pIC50 (SW1463, SW1463 (large intestine, rectum, colorectal adenocarcinoma)): 4.82
pIC50 (SW-620, SW620 (large intestine, colon, adenocarcinoma)): < 4.70
pIC50 (T84 (large intestine, colon, colorectal carcinoma)): < 4.70
pIC50 (T98G, T98G (central nervous system, glioblastoma multiforme)): 5.44
pIC50 (TCC-SUP, TCCSUP (urinary bladder, transitional cell carcinoma)): 5.38
pIC50 (TE-1 (oesophagus, esophageal squamous cell carcinoma)): 5.97
pIC50 (TE-5 (oesophagus, esophageal squamous cell carcinoma)): 5.32
pIC50 (TE-9 (oesophagus, esophageal squamous cell carcinoma)): 5.93
pIC50 (TE-11, TE-11 (oesophagus, esophageal squamous cell carcinoma)): 5.69
pIC50 (TE-15, TE-15 (oesophagus, esophageal squamous cell carcinoma)): 6.14
pIC50 (THP-1, THP-1 (haematopoietic and lymphoid tissue, leukemia, acute monocytic)): 5.26
pIC50 (TOV21G, TOV-21G (ovary, clear cell carcinoma)): < 4.70
pIC50 (TT (thyroid, carcinoma)): 4.98
pIC50 (Toledo, Toledo (haematopoietic and lymphoid tissue, diffuse large cell lymphoma)): < 4.70
pIC50 (U-251, U251 (central nervous system, human glioma)): 5.52
pIC50 (U-266, U-266 (haematopoietic and lymphoid tissue, myeloma; plasmacytoma)): 4.87
pIC50 (UACC-812, UACC-812 (breast, ductal carcinoma)): < 4.70
pIC50 (UMUC3, UM-UC-3 (urinary bladder, transitional cell carcinoma)): 5.71
pIC50 (VCaP, VCaP (prostate, prostate cancer)): 5.11
pIC50 (VMRC-RCZ (kidney, renal cancer)): 5.12
pIC50 (WM 266-4, WM-266-4 (skin, melanoma)): < 4.70
pIC50 (WM-115, WM-115 (skin, malignant melanoma)): < 4.70
pIC50 (ZR-75-30, ZR-75-30 (breast, ductal carcinoma)): < 4.70

Reference: paper PMC6193938, “Characterization of a novel AICARFT inhibitor which potently elevates ZMP and has anti-tumor activity in murine models” (Scientific Reports, 2018)
